Assay results: US10028992B2, “Methods of treating muscular dystrophy” (BOARD OF REGENTS OF THE NEVADA SYSTEM OF HIGHER EDUCATION …, priority 2012, dated 2018)
Where two headings read alike, the source gives them in different places.

System: α7 integrin promoter
Assay: muscle cell-based assay: α7βgal+/− myoblasts/myotubes, LacZ reporter, β-galactosidase cleavage of FDG
Set-up: species or system mouse
Conditions: for EC50: Mus musculus, read-out: Fit LogAC50 (converted)
Method: An α7 integrin null mouse was produced in which exon 1 of the gene encoding the α7 integrin was replaced by the LacZ reporter. In these mice, all the transcriptional regulatory elements of the α7 integrin promoter were retained, allowing β-galactosidase to report expression of 7 integrin. A primary myoblast cell line (designated α7βgal^+/−) isolated from 10 day old α7^+/− pups were analyzed for the ability of β-galactosidase to report α7 integrin expression. α7βgal^+/− myoblasts were differentiated and subjected to X-gal staining and western analysis (FIGS. 1A and 1B).
The activity of the α7 integrin promoter was measured by β-galactosidase cleavage of the non-fluorescent compound fluorescein di-β-D-galactopyranoside (FDG) to fluorescein. This assay was used to screen compound libraries to identify molecules that up-regulate α7 integrin expression in muscle.
Also evaluated was the effect of various isoforms of laminin and the ligand for α7β1 integrin on integrin expression. Positive hits were subjected to dose-response analysis, western analysis and a myostatin counterscreen (a negative regulator of muscle growth).

[1] = given as log AC50 (negative values)
[2] = curve class number, key not given
[3] = curve fit, activity at zero concentration

Compound | EC50 [1] | Score (Table 12 compound data) | Fit Curve Class [2] | Fit HillSlope (curve fit) | Fit Zero Activity [%] [3] | Fit Infinite Activity [%] (curve fit, activity at infinite concentration) | Fit LogAC50 [1] | Fit Curve Class | Fit HillSlope | Fit Zero Activity [%] | Score | EC50
Sc1nnc(Cn2cnc3ccccc32)n1-c1ccccc1 [Compound 189] | 8.91 µM | 42 | 2.2 | 0.8 | 8.5392% | – | – | – | – | – | – | –
CN(C#N)c1nccc(-c2cccs2)n1 [Compound 190] | 11.2 µM | 42 | 2.1 | 2.0937 | −28.9068% | – | – | – | – | – | – | –
O=Cc1cnc(N2CCCCC2)s1 [Compound 191] | 11.2 µM | 42 | 2.1 | 4.9549 | −19.3188% | – | – | – | – | – | – | –
COc1cc2c(cc1OC)C(NC(=O)C(F)(F)F)C/C2=N\O (stereo not drawn) [Compound 193] | 11.2 µM | 42 | 2.1 | 4.095 | 2.547% | – | – | – | – | – | – | –
COc1ccc(N2CCN(CCC3Oc4cc([N+](=O)[O-])ccc4NC3=O)CC2)cc1 (stereo not drawn) [Compound 194] | – | 42 | 2.2 | 1.7137 | −2.9581% | 73.9084% | −5.05 | – | – | – | – | –
N#Cc1ccc(OCC(O)CS(=O)(=O)c2ccccc2)cc1 (stereo not drawn) [Compound 195] | 10 µM | 42 | 2.1 | 4.045 | −9.8792% | – | – | – | – | – | – | –
Cc1ccccc1C(=O)Nc1nnc(SC(C)C)s1 [Compound 196] | 10 µM | 42 | 2.2 | 2.8473 | −0.5091% | – | – | – | – | – | – | –
Cc1cc(C)nc(NC(=O)c2ccc(Cl)cc2Cl)n1 [Compound 198] | 10 µM | 42 | 2.2 | 4.9549 | 1.0914% | – | – | – | – | – | – | –
CC(C)N(CCO)C(=O)CCc1nnc(CCCc2ccccc2)o1 [Compound 199] | 12.6 µM | 42 | 2.2 | 1.2876 | 0.1862% | – | – | – | – | – | – | –
c1ccc(CN2CCCC3(CCCN(Cc4nc(CC5CC5)no4)C3)C2)cc1 (stereo not drawn) [Compound 200] | 8.91 µM | 42 | 2.1 | 1.4781 | −42.0662% | – | – | – | – | – | – | –
Cn1c(=O)c2c(nc(Sc3ncnn3CC(=O)NC3CCCCC3)n2C)n(C)c1=O [Compound 201] | 11.2 µM | 42 | 2.1 | 2.3531 | −19.8816% | – | – | – | – | – | – | –
NS(=O)(=O)c1ccc(NC(=O)Nc2ccc(Cl)cc2)cc1 [Compound 202] | – | – | – | – | – | – | – | 2.2 | 1.8617 | – | – | –
CC1=C(C#N)C(=O)N(C)C(=O)/C1=C\NNc1ccc(F)cc1 [Compound 203] | 7.08 µM | 42 | 2.1 | 1.4781 | −47.2995% | – | – | – | – | – | – | –
CCS(=O)(=O)N1CCN(c2ccc([N+](=O)[O-])c(NCC3CCCO3)c2)CC1 (stereo not drawn) [Compound 204] | 10 µM | 42 | 2.2 | 3.5722 | 0.4864% | – | – | – | – | – | – | –
O=C(NC(=S)NCCC1=CCCCC1)c1ccc(Br)o1 [Compound 205] | 7.08 µM | 42 | 2.1 | 1.4781 | −40.2978% | – | – | – | – | – | – | –
NS(=O)(=O)c1ccc(NC(=O)c2ccc(CNS(=O)(=O)c3cc(C(F)(F)F)ccc3Cl)cc2)cc1 [Compound 207] | 10 µM | 42 | 2.2 | 2.5334 | 0.1699% | – | – | – | – | – | – | –
O=Cc1cn(Cc2ccc(F)cc2Cl)c2ccccc12 [Compound 209] | – | – | – | – | – | – | – | 2.1 | 4.095 | 12.1779% | 42 | 15.8 µM
CNC(=O)/C(=C\c1cccc(Oc2ccccc2)c1)NC(=O)c1ccccc1 [Compound 211] | 11.2 µM | 42 | 2.1 | 1.1341 | −0.265% | – | – | – | – | – | – | –
C=CCc1c(C)nc(-c2ccccc2)nc1N/N=C/c1ccccc1 [Compound 213] | 11.2 µM | 42 | 2.1 | 1.2876 | −1.0122% | – | – | – | – | – | – | –
COc1ccc(CCNC(=O)c2cc(-c3cc(C)ccc3O)n[nH]2)cc1OC [Compound 217] | 10 µM | 42 | 2.2 | 3.0654 | 9.7958% | – | – | – | – | – | – | –

Continued, in another order:

EC50 [1] | Compound | Score (Table 12 compound data) | Fit Curve Class [2] | Fit HillSlope (curve fit) | Fit Zero Activity [%] [3] | Fit Infinite Activity [%] (curve fit, activity at infinite concentration) | Fit LogAC50 [1] | Fit Curve Class | Fit HillSlope | Fit Zero Activity [%] | Score | EC50
11.2 µM | Nc1nccc(-c2ccc(-n3cnc4ccccc43)cc2)n1 [Compound 192] | 42 | 2.2 | 4.095 | 2.4789% | – | – | – | – | – | – | –
8.91 µM | CC(=O)c1cccc(NC(=O)C(=O)Nc2cccc3ccccc23)c1 [Compound 197] | 42 | 2.2 | 0.9 | 1.5% | – | – | – | – | – | – | –
11.2 µM | CCCC(=O)Nc1ccccc1NC(=O)c1ccc(OCC)cc1 [Compound 206] | 42 | 2.1 | 4.095 | 13.9528% | – | – | – | – | – | – | –
10 µM | COc1ccc(CN2CCNC(=O)C2CC(=O)NCCc2c[nH]c3ccccc23)c(OC)c1 (stereo not drawn) [Compound 208] | 42 | 2.2 | 3.1925 | −9.1413% | – | – | – | – | – | – | –
12.6 µM | Cc1ccc(-c2nc(C)sc2CC(=O)OCC(=O)Nc2c(F)cccc2F)cc1 [Compound 210] | 42 | 2.1 | 4.9549 | 11.9156% | – | – | – | – | – | – | –
14.1 µM | O=S(=O)(NCC(c1ccco1)N1CCOCC1)c1ccc(Cl)cc1 (stereo not drawn) [Compound 212] | 42 | 2.1 | 4.5045 | 9.0119% | – | – | – | – | – | – | –
11.2 µM | CCc1ccc(Sc2cc(C(=O)NCCN3CCOCC3)c3ccccc3n2)cc1 [Compound 214] | 42 | 2.1 | 2.0937 | 13.9034% | – | – | – | – | – | – | –
10 µM | O=C(Nc1ccc(Oc2cccnc2)cc1)c1ccccc1Cl [Compound 215] | 42 | 2.1 | 2.1211 | 13.9023% | – | – | – | – | – | – | –
10 µM | O=C(CNC(=O)c1cccc(F)c1)N/N=C/c1cc(Br)ccc1OCc1ccccc1 [Compound 216] | 42 | 2.2 | 0.8 | 3.67% | – | – | – | – | – | – | –
10 µM | N#Cc1ccc(Sc2nc3ccccc3[nH]2)cc1C#N [Compound 218] | 42 | 2.2 | 3.6272 | 13.7566% | – | – | – | – | – | – | –
11.2 µM | CC(=O)Nc1nonc1-c1nc2ccccc2n1CCC(C)C [Compound 219] | 42 | 2.2 | 1.5936 | −7.5793% | – | – | – | – | – | – | –
